Where two headings read alike, the source gives them in different places.
Key:
Type in all cases: in vivo
[1] = test system: Erysiphe graminis f. sp. tritici; experiment: Test E: wheat powdery mildew, spray the day before inoculation (disease rating, 100 = 100% disease control)
Summary of the method: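 Wheat seedlings sprayed to run-off with compound suspended in acetone/water 50/50 with 250 ppm Trem 014 (200 ppm equivalent to 500 g/ha); inoculated next day with Erysiphe graminis f. sp. tritici spore dust. Kept 7 days at 20° C, then rated 0–100% disease control versus controls.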

Plasmopara viticola = experiment: Test B: grape downy mildew, spray 24 h after inoculation (disease rating, 100 = 100% disease control)
Summary of the method: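 Grape seedlings were inoculated with Plasmopara viticola and held 24 h saturated at 20 °C, then sprayed to run-off with compound suspension (acetone/water with 250 ppm Trem 014; 200 ppm ≈ 500 g/ha). After 5 days at 20 °C and 24 h saturation, disease was rated from 0 to 100% control versus untreated.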

Phytophthora infestans [2] = experiment: whole plant or invertebrate; settings: for Test C disease rating (100 = 100% disease control, 0 = no disease control): tomato late blight
Phytophthora infestans [3] = experiment: whole plant or invertebrate; settings: for Test D disease rating (100 = 100% disease control, 0 = no disease control): tomato late blight
[4] = spray the day before inoculation, compounds without asterisk (not 40 or 10 ppm)
[5] = spray 24 h after inoculation, compounds without asterisk (not 40 or 10 ppm)
[6] = spray 17 h after inoculation, compounds without asterisk (not 40 or 10 ppm)
[7] = spray the day before inoculation, tested at 40 ppm
[8] = spray 24 h after inoculation, tested at 40 ppm
[9] = spray 17 h after inoculation, tested at 40 ppm
[10] = sprayed the day before inoculation, 7 days at 20° C., unmarked compounds (no asterisk, not 40 or 10 ppm)
[11] = sprayed 24 h after inoculation, unmarked compounds (no asterisk, not 40 or 10 ppm)
[12] = sprayed the day before inoculation, unmarked compounds (no asterisk, not 40 or 10 ppm)
[13] = sprayed 17 h after inoculation, unmarked compounds (no asterisk, not 40 or 10 ppm)
[14] = spray the day before inoculation, tested at 10 ppm

Row | Structure (SMILES) | Test E disease rating (100 = 100% disease control, 0 = no disease control) [1, 4] [%] | Test B disease rating (100 = 100% disease control, 0 = no disease control) (Plasmopara viticola; [5]) [%] | Test C disease rating (100 = 100% disease control, 0 = no disease control) (Phytophthora infestans [2]; [4]) [%] | Test D disease rating (100 = 100% disease control, 0 = no disease control) (Phytophthora infestans [3]; [6]) [%] | further results
1 | Cc1cc(C(F)(F)F)nn1CC(=O)N1CCC(c2nc(C(=O)N(C)C3c4ccccc4C=CC3C)cs2)CC1 (stereo not drawn) [compound 230] | 0 | 87 | 100 | 94 | –
2 | Cc1cc(C(F)(F)F)nn1CC(=O)N1CCC(c2nc(C(=O)N(C)C3c4ccccc4CC3O)cs2)CC1 (racemic) [compound 200] | – | – | – | – | Test E disease rating (100 = 100% disease control, 0 = no disease control) [1, 7]: 0%; Test B disease rating (100 = 100% disease control, 0 = no disease control) (Plasmopara viticola; [8]): 39%; Test C disease rating (100 = 100% disease control, 0 = no disease control) (Phytophthora infestans [2]; [7]): 98%; Test D disease rating (100 = 100% disease control, 0 = no disease control) (Phytophthora infestans [3]; [9]): 98%
3 | Cc1cc(C(F)(F)F)nn1CC(=O)N1CCC(c2nc(C(=O)N(C)C3CCC(C)c4ccccc43)cs2)CC1 (mixture of isomers) [compound 192] | 0 | 97 | 100 | 99 | –
4 | C[C@H](c1ccccc1)N(C)C(=O)c1csc(C2CCN(C(=O)Cc3ccncc3)CC2)n1 [compound 84] | 0 | 41 | 44 | 0 | –
5 | Cc1cc(C(F)(F)F)nn1CC(=O)N1CCC(c2nc(C(=O)N(C)C3c4ccccc4CCC3O)cs2)CC1 (stereo not drawn) [compound 194] | – | – | – | – | Test E disease rating (100 = 100% disease control, 0 = no disease control) [1, 7]: 0%; Test B disease rating (100 = 100% disease control, 0 = no disease control) (Plasmopara viticola; [8]): 0%; Test C disease rating (100 = 100% disease control, 0 = no disease control) (Phytophthora infestans [2]; [7]): 98%; Test D disease rating (100 = 100% disease control, 0 = no disease control) (Phytophthora infestans [3]; [9]): 74%
6 | Cc1ccc(C)c(CC(=O)N2CCC(c3nc(C(=O)N(C)C(C)c4cc(C)sc4C)cs3)CC2)c1 (stereo not drawn) [compound 112] | 95 | 93 | 100 | 99 | –
7 | CC(=O)OC1CCC(N(C)C(=O)c2csc(C3CCN(C(=O)Cn4nc(C(F)(F)F)cc4C)CC3)n2)c2ccccc21 (stereo not drawn) [compound 212] | – | – | – | – | Test E disease rating (100 = 100% disease control, 0 = no disease control) [1, 7]: 0%; Test B disease rating (100 = 100% disease control, 0 = no disease control) (Plasmopara viticola; [8]): 97%; Test C disease rating (100 = 100% disease control, 0 = no disease control) (Phytophthora infestans [2]; [7]): 100%; Test D disease rating (100 = 100% disease control, 0 = no disease control) (Phytophthora infestans [3]; [9]): 99%
8 | CN(C(=O)c1csc(C2CCN(C(=O)Cn3nc(C(F)(F)F)cc3C(C)(C)C)CC2)n1)[C@@H]1CCCc2ccccc21 [compound 239] | – | – | – | – | Test E disease rating (100 = 100% disease control, 0 = no disease control) [1, 7]: 0%; Test B disease rating (100 = 100% disease control, 0 = no disease control) (Plasmopara viticola; [8]): 63%; Test C disease rating (100 = 100% disease control, 0 = no disease control) (Phytophthora infestans [2]; [7]): 57%; Test D disease rating (100 = 100% disease control, 0 = no disease control) (Phytophthora infestans [3]; [9]): 0%
9 | COc1ccc2c(c1)C(N(C)C(=O)c1csc(C3CCN(C(=O)Cn4nc(C(F)(F)F)cc4C)CC3)n1)CCC2 (stereo not drawn) [compound 198] | – | – | – | – | Test E disease rating (100 = 100% disease control, 0 = no disease control) [1, 7]: 0%; Test B disease rating (100 = 100% disease control, 0 = no disease control) (Plasmopara viticola; [8]): 99%; Test C disease rating (100 = 100% disease control, 0 = no disease control) (Phytophthora infestans [2]; [7]): 100%; Test D disease rating (100 = 100% disease control, 0 = no disease control) (Phytophthora infestans [3]; [9]): 99%
10 | Cc1cc(C(F)(F)F)nn1CC(=O)N1CCC(c2nc(C(=O)N3CCCCC3)cs2)CC1 [compound 307] | – | – | – | – | Test E disease rating (100 = 100% disease control, 0 = no disease control) [1, 10]: 0; Test B disease rating (100 = 100% disease control, 0 = no disease control) (Plasmopara viticola; [11]): 79; Test C disease rating (100 = 100% disease control, 0 = no disease control) (Phytophthora infestans [2]; [12]): 100; Test D disease rating (100 = 100% disease control, 0 = no disease control) (Phytophthora infestans [3]; [13]): 26
11 | Cc1cc(C(F)(F)F)nn1CC(=O)N1CCC(c2nc(C(=O)N(C)C3CCC(=O)c4ccccc43)cs2)CC1 (stereo not drawn) [Compound 211, N-methyl-2-[1-[[5-methyl-3-(trifluoromethyl)-1H-pyrazol-1-yl]acetyl]-4-piperidinyl]-N-(1,2,3,4-tetrahydro-4-oxo-1-naphthalenyl)-4-thiazolecarboxamide] | – | – | – | – | pest or weed control at 40 ppm ([1]; Blumeria graminis, topical, 168 h, spray the day before inoculation, tested at 40 ppm, read-out: Test E disease rating (100 = 100% disease control, 0 = no disease control)): 0%; pest or weed control at 40 ppm (Plasmopara viticola; Plasmopara viticola, 144 h, spray 24 h after inoculation, tested at 40 ppm, read-out: Test B disease rating (100 = 100% disease control, 0 = no disease control)): 99%; pest or weed control at 40 ppm (Phytophthora infestans [2]; Phytophthora infestans, in Solanum lycopersicum, 144 h, read-out: Test C disease rating (100 = 100% disease control, 0 = no disease control)): 100%; pest or weed control at 40 ppm (Phytophthora infestans [3]; Phytophthora infestans, in Solanum lycopersicum, topical, 96 h, read-out: Test D disease rating (100 = 100% disease control, 0 = no disease control)): 99%
12 | C[C@H](c1ccccc1)N(C)C(=O)c1csc(C2CCN(C(=O)Cc3cccnc3)CC2)n1 [compound 83] | 0 | 14 | 31 | 0 | –
13 | Cc1ccc(C)c(CC(=O)N2CCC(c3nc(C(=O)N(C)C4COc5ccccc54)cs3)CC2)c1 (stereo not drawn) [compound 138] | 44 | 91 | 100 | 37 | –
14 | Cc1cc(C(F)(F)F)nn1CC(=O)N1CCC(c2nc(C(=O)N(C)C3CCCc4c(O)cccc43)cs2)CC1 (stereo not drawn) [compound 189] | 0 | 93 | 100 | 99 | –
15 | Cc1cc(C(F)(F)F)nn1CC(=O)N1CCC(c2nc(C(=O)N3CCC(C)(C)CC3)cs2)CC1 [compound 309] | – | – | – | – | Test E disease rating (100 = 100% disease control, 0 = no disease control) [1, 10]: 0; Test B disease rating (100 = 100% disease control, 0 = no disease control) (Plasmopara viticola; [11]): 96; Test C disease rating (100 = 100% disease control, 0 = no disease control) (Phytophthora infestans [2]; [12]): 100; Test D disease rating (100 = 100% disease control, 0 = no disease control) (Phytophthora infestans [3]; [13]): 83
16 | Cc1cc(C(F)(F)F)nn1CC(=O)N1CCC(c2nc(C(=O)N3CCCC4CCCCC43)cs2)CC1 (stereo not drawn) [compound 300] | – | – | – | – | Test E disease rating (100 = 100% disease control, 0 = no disease control) [1, 10]: 0; Test B disease rating (100 = 100% disease control, 0 = no disease control) (Plasmopara viticola; [11]): 62; Test C disease rating (100 = 100% disease control, 0 = no disease control) (Phytophthora infestans [2]; [12]): 97; Test D disease rating (100 = 100% disease control, 0 = no disease control) (Phytophthora infestans [3]; [13]): 58
17 | COc1ccccc1CC(=O)N1CCN(c2nc(C(=O)N(C)[C@H](C)c3ccccc3)co2)CC1 [compound 53] | 0 | 20 | 100 | 89 | –
18 | CC(C)c1cc(C(F)(F)F)nn1CC(=O)N1CCC(c2nc(C(=O)N(C)[C@@H]3CCCc4ccccc43)cs2)CC1 [compound 240] | – | – | – | – | Test E disease rating (100 = 100% disease control, 0 = no disease control) [1, 14]: 0%; Test B disease rating (100 = 100% disease control, 0 = no disease control) (Plasmopara viticola; spray 24 h after inoculation, tested at 10 ppm): 99%; Test C disease rating (100 = 100% disease control, 0 = no disease control) (Phytophthora infestans [2]; [14]): 100%; Test D disease rating (100 = 100% disease control, 0 = no disease control) (Phytophthora infestans [3]; spray 17 h after inoculation, tested at 10 ppm): 99%
19 | Cc1cc(C(F)(F)F)nn1CC(=O)N1CCC(c2nc(C(=O)N3CC=CCC3)cs2)CC1 [compound 310] | – | – | – | – | Test E disease rating (100 = 100% disease control, 0 = no disease control) [1, 10]: 0; Test B disease rating (100 = 100% disease control, 0 = no disease control) (Plasmopara viticola; [11]): 47; Test C disease rating (100 = 100% disease control, 0 = no disease control) (Phytophthora infestans [2]; [12]): 73; Test D disease rating (100 = 100% disease control, 0 = no disease control) (Phytophthora infestans [3]; [13]): 9
20 | Cc1nc(CC(=O)N2CCC(c3nc(C(=O)N(C)[C@H](C)c4ccccc4)cs3)CC2)cs1 [compound 91] | 0 | 16 | 99 | 79 | –
21 | Cc1cc(C(F)(F)F)nn1CC(=O)N1C(C)CN(c2nc(C(=O)N(C)[C@@H]3CCCc4ccccc43)cs2)CC1C (stereo partly drawn) [compound 292] | – | – | – | – | Test E disease rating (100 = 100% disease control, 0 = no disease control) [1, 10]: 0; Test B disease rating (100 = 100% disease control, 0 = no disease control) (Plasmopara viticola; [11]): 71; Test C disease rating (100 = 100% disease control, 0 = no disease control) (Phytophthora infestans [2]; [12]): 100; Test D disease rating (100 = 100% disease control, 0 = no disease control) (Phytophthora infestans [3]; [13]): 93
22 | Cc1ccc(C)c(CC(=O)N2CCC(c3nc(C(=O)N(C)C4CCSc5ccccc54)cs3)CC2)c1 (stereo not drawn) [compound 136] | 0 | 77 | 100 | 80 | –
23 | Cc1ccc(C)c(CC(=O)N2CCC(c3nc(C(=O)N(C)[C@H](C)c4ncc(Cl)cc4Cl)cs3)CC2)c1 [compound 111] | 98 | 96 | 99 | 37 | –
24 | CCOc1cccc(CC(=O)N2CCC(c3nc(C(=O)N(C)[C@H](C)c4ccccc4)cs3)CC2)c1 [compound 79] | 0 | 82 | 77 | 0 | –
